Data from ChEMBL document CHEMBL4418299, “Compounds useful as csf1 modulators” (2016).

Legend:
[1] = target: Macrophage colony-stimulating factor 1 receptor (Homo sapiens, UniProt P07333); experiment: Displacement of kinase tracer 236 from recombinant human His-tagged CSF1R cytoplasmic domain (538 to 910 residues) expressed in baculovirus-infected insect cells measured after 5 hrs by TR-FRET based LanthaScreen assay
[2] = target: Vascular endothelial growth factor receptor 2 (Homo sapiens, UniProt P35968); experiment: Displacement of kinase tracer 236 from recombinant human His-tagged KDR cytoplasmic domain (789 to 1356 residues) expressed in baculovirus-infected insect cells measured after 5 hrs by TR-FRET based LanthaScreen assay
Sequence of Vascular endothelial growth factor receptor 2 (P35968 whole entry, the tested form may be a part): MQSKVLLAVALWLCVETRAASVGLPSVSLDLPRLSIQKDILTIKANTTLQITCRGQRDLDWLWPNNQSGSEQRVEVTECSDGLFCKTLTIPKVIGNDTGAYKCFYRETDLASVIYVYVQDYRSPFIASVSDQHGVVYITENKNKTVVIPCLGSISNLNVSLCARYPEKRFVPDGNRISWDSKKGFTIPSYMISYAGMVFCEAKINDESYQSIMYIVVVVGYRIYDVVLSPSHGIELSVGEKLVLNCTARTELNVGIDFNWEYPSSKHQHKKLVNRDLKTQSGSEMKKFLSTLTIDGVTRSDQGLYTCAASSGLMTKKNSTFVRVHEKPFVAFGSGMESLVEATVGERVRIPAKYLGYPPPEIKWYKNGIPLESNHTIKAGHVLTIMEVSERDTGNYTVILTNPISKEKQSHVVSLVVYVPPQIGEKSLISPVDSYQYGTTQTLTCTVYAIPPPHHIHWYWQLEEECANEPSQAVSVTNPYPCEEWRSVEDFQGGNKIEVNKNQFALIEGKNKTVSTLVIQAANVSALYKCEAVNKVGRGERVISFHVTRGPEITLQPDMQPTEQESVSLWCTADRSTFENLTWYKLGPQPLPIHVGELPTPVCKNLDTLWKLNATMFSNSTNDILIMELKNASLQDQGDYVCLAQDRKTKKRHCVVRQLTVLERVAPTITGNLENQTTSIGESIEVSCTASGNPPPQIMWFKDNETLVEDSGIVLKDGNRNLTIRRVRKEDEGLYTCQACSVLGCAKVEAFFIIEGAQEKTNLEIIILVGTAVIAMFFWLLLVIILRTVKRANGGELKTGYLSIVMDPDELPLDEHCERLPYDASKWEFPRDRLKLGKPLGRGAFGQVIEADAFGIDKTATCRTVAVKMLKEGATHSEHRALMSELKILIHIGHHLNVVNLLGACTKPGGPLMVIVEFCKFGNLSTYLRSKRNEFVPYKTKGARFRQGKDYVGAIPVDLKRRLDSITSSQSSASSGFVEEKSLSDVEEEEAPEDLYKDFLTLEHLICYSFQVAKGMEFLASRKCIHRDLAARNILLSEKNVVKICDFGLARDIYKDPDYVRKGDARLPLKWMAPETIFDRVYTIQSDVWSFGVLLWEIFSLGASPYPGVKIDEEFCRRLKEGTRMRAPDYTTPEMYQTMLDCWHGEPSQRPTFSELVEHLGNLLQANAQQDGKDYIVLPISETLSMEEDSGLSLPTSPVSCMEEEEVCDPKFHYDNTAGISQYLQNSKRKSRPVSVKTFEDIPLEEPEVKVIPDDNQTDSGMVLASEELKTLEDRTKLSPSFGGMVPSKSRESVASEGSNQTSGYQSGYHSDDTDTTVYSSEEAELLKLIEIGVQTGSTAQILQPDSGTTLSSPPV

Sequence of Macrophage colony-stimulating factor 1 receptor (P07333 whole entry, the tested form may be a part): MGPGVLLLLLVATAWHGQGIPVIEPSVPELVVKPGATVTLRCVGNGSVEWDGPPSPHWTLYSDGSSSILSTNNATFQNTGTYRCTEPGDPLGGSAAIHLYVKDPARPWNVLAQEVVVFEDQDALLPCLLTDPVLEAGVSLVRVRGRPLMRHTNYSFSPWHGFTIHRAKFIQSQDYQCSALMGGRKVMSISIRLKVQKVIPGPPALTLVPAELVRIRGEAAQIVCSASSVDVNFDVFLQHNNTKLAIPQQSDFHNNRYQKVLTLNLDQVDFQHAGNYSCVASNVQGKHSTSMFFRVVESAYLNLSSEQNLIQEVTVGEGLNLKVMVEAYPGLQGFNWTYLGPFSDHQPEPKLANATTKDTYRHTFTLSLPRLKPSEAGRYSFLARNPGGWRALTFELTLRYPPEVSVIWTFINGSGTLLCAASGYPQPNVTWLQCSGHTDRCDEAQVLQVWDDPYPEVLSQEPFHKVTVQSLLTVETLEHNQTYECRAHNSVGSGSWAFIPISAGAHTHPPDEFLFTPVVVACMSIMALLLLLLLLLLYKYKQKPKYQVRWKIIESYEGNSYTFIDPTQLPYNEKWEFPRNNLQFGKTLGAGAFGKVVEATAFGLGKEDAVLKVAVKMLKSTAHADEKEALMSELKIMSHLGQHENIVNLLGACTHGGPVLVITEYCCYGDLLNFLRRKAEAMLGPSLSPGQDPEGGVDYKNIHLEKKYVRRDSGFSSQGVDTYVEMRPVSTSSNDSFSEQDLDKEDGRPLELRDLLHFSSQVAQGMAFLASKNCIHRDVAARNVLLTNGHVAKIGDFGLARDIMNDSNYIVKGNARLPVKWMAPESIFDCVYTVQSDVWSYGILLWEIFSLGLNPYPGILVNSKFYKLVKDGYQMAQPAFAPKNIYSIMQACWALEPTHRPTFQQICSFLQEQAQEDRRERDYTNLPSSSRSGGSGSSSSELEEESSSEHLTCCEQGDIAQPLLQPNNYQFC

IC50 [1] [nM] | IC50 [2] [nM] | SMILES
< 10 | > 200 | COc1ccc(CC(=O)Nc2ccc(-n3c4c(c5ncnc(N)c53)CCC4)cc2)cc1F
10 to 200 | 10 to 200 | Nc1ncnc2c3c(n(-c4ccc(CC(=O)Nc5ccnc(C(F)(F)F)c5)cc4)c12)CCC3
10 to 200 | > 200 | Nc1ncnc2c3c(n(-c4ccc(CC(=O)Nc5ccc(C(F)(F)F)nc5)cc4)c12)CCC3
< 10 | > 200 | Nc1ncnc2c3c(n(-c4ccc(NC(=O)Cc5ccc(Cl)c(Cl)c5)cc4)c12)CCC3
< 10 | > 200 | COc1cc(-n2c3c(c4ncnc(N)c42)CCC3)ccc1CC(=O)Nc1ccc(OC(F)(F)F)cc1
< 10 | > 200 | Nc1ncnc2c3c(n(-c4ccc(NC(=O)Cc5ccc(F)cc5C(F)(F)F)cc4)c12)CCC3
10 to 200 | > 200 | Nc1ncnc2c3c(n(-c4ccc(NC(=O)Cc5ccccc5)cc4)c12)CCC3
10 to 200 | > 200 | Nc1ncnc2c3c(n(-c4ccc(NC(=O)Cc5cc(C(F)(F)F)ccc5F)c(F)c4)c12)CCC3
< 10 | > 200 | Cn1ccc2cc(NC(=O)Cc3ccc(-n4c5c(c6ncnc(N)c64)CCC5)cc3)ccc21
< 10 | > 200 | Nc1ncnc2c3c(n(-c4ccc(NC(=O)Cc5cc(Cl)ccc5F)cc4)c12)CCC3
10 to 200 | > 200 | Nc1ncnc2c3c(n(-c4ccc(NC(=O)Cc5nc6ccccc6s5)cc4)c12)CCC3
10 to 200 | > 200 | Nc1ncnc2c3c(n(-c4ccc(CC(=O)Nc5nc(C(F)(F)F)cs5)cc4)c12)CCC3
< 10 | > 200 | Nc1ncnc2c3c(n(-c4ccc(NC(=O)Cc5ccc(F)cc5)cc4)c12)CCC3
< 10 | > 200 | Nc1ncnc2c3c(n(-c4ccc(CC(=O)N5CCOc6ccccc65)cc4)c12)CCC3
10 to 200 | > 200 | CC(C(=O)Nc1ccc(-n2c3c(c4ncnc(N)c42)CCC3)cc1)c1ccccc1 (configuration not stated)
> 200 | > 200 | Nc1ncnc2c3c(n(-c4ccc(NC(=O)CC5CCNCC5)cc4)c12)CCC3
> 200 | > 200 | COc1cc(CC(=O)Nc2ccc(-n3c4c(c5ncnc(N)c53)CCC4)cc2)cc(OC)c1
 | > 200 | Nc1ncnc2c3c(n(-c4ccc(NC(=O)Cc5cccc(O)c5)cc4)c12)CCC3
10 to 200 | > 200 | COc1cc(-n2c3c(c4ncnc(N)c42)CCC3)ccc1NC(=O)Cc1ccc(OC)c(C(F)(F)F)c1
< 10 | > 200 | COc1cc(-n2c3c(c4ncnc(N)c42)CCC3)ccc1NC(=O)Cc1ccc2c(c1)CCN2CC(F)(F)F
< 10 | > 200 | Nc1ncnc2c3c(n(-c4ccc(NC(=O)Cc5ccc(F)cc5Br)cc4)c12)CCC3
< 10 | > 200 | COc1ccc(NC(=O)Cc2ccc(-n3c4c(c5ncnc(N)c53)CCC4)cc2)cc1F
> 200 | > 200 | Nc1ncnc2c3c(n(-c4ccc(CC(=O)NC5CCOCC5)cc4)c12)CCC3
< 10 | > 200 | COc1ccc(CC(=O)Nc2ccc(-n3c4c(c5ncnc(N)c53)CCC4)cc2)cc1C
< 10 | > 200 | Nc1ncnc2c3c(n(-c4ccc(CC(=O)Nc5ccc(Cl)c(C(F)(F)F)c5)cc4)c12)COC3

IC50 [1] [nM] | IC50 [2] [nM] | SMILES
10 to 200 | > 200 | Nc1ncnc2c3c(n(-c4ccc(CC(=O)Nc5ccc(C(F)(F)F)cn5)cc4)c12)CCC3
4 | > 200 | Cn1ccc2cc(CC(=O)Nc3ccc(-n4c5c(c6ncnc(N)c64)CCC5)cc3)ccc21
> 200 | > 200 | Nc1ncnc2c3c(n(-c4ccc(NC(=O)Cc5ccccc5)c(F)c4)c12)COC3
10 to 200 | > 200 | Cc1cc(CC(=O)Nc2ccc(-n3c4c(c5ncnc(N)c53)CCC4)cc2)on1
< 10 | > 200 | Cc1ccc(F)c(CC(=O)Nc2ccc(-n3c4c(c5ncnc(N)c53)CCC4)cc2)c1
< 10 | > 200 | COc1ccc(CC(=O)Nc2ccc(-n3c4c(c5ncnc(N)c53)CCC4)cc2)cc1
< 10 | > 200 | Nc1ncnc2c3c(n(-c4ccc(NC(=O)Cc5cc(C(F)(F)F)ccc5F)cc4)c12)CCC3
< 10 | > 200 | COc1cc(-n2c3c(c4ncnc(N)c42)CCC3)ccc1CC(=O)Nc1ccc(Cl)c(C(F)(F)F)c1
< 10 | > 200 | Nc1ncnc2c3c(n(-c4ccc(NC(=O)Cc5ccc(OC(F)(F)F)cc5)cc4)c12)COC3
< 10 | > 200 | Nc1ncnc2c3c(n(-c4ccc(NC(=O)Cc5ccc(Cl)cc5)cc4)c12)CCC3
< 10 | > 200 | COc1ccc(CC(=O)Nc2ccc(-n3c4c(c5ncnc(N)c53)CCC4)cc2)cc1C(F)(F)F
< 10 | > 200 | COc1cc(CC(=O)Nc2ccc(-n3c4c(c5ncnc(N)c53)CCC4)cc2)ccc1C
< 10 | > 200 | COc1cc(-n2c3c(c4ncnc(N)c42)CCC3)ccc1CC(=O)Nc1ccnc(C(F)(F)F)c1
< 10 | > 200 | COc1ccc(NC(=O)Cc2ccc(-n3c4c(c5ncnc(N)c53)CCC4)cc2OC)cc1F
< 10 | 10 to 200 | Cc1ccc(F)c(NC(=O)Cc2ccc(-n3c4c(c5ncnc(N)c53)CCC4)cc2)c1
< 10 | > 200 | COc1cc(-n2c3c(c4ncnc(N)c42)CCC3)ccc1CC(=O)Nc1ccc(Cl)c(Cl)c1
< 10 | > 200 | Cc1ccc(CC(=O)Nc2ccc(-n3c4c(c5ncnc(N)c53)CCC4)cc2)cc1F
10 to 200 | > 200 | Nc1ncnc2c3c(n(-c4ccc(CC(=O)Nc5nc(C(F)(F)F)co5)cc4)c12)CCC3
< 10 | 10 to 200 | COc1ccc(NC(=O)Cc2ccc(-n3c4c(c5ncnc(N)c53)CCC4)cc2)cc1C(F)(F)F
10 to 200 | > 200 | CC(C)c1cn(C)c2ccc(CC(=O)Nc3ccc(-n4c5c(c6ncnc(N)c64)CCC5)cc3)cc12
< 10 | > 200 | COc1ccc(CC(=O)Nc2ccc(-n3c4c(c5ncnc(N)c53)CCC4)cc2)c(F)c1
10 to 200 | > 200 | COc1ccc(CC(=O)Nc2ccc(-n3c4c(c5ncnc(N)c53)CCC4)cc2F)c(F)c1
< 10 | 10 to 200 | Nc1ncnc2c3c(n(-c4ccc(CC(=O)Nc5cc(C(F)(F)F)ccc5F)cc4)c12)CCC3
< 10 | > 200 | Nc1ncnc2c3c(n(-c4ccc(CC(=O)Nc5ccc(C(F)(F)F)c(Cl)c5)cc4)c12)CCC3
10 to 200 | > 200 | Nc1ncnc2c3c(n(-c4ccc(NC(=O)Cc5cc(C(F)(F)F)ccc5F)c(F)c4)c12)COC3

IC50 [1] [nM] | IC50 [2] [nM] | SMILES
< 10 | > 200 | Nc1ncnc2c3c(n(-c4ccc(NC(=O)Cc5cccc(OC(F)(F)F)c5)cc4)c12)CCC3
< 10 | > 200 | Nc1ncnc2c3c(n(-c4ccc(NC(=O)Cc5ccc(Cl)cc5F)cc4)c12)CCC3
10 to 200 | > 200 | COc1cc(CC(=O)Nc2ccc(-n3c4c(c5ncnc(N)c53)CCC4)cc2)ccc1F
47 | > 200 | Nc1ncnc2c3c(n(-c4ccc(NC(=O)Cc5ccccc5)cc4F)c12)CCC3
10 to 200 | > 200 | Cn1ccc2cc(CC(=O)Nc3ccc(-n4c5c(c6ncnc(N)c64)COC5)cc3)ccc21
10 to 200 | > 200 | Nc1ncnc2c3c(n(-c4ccc(NC(=O)Cc5cccc(OC(F)F)c5)cc4)c12)CCC3
10 to 200 | > 200 | Nc1ncnc2c3c(n(-c4ccc(CC(=O)Nc5ccc(C(F)(F)F)nn5)cc4)c12)CCC3
< 10 | 10 to 200 | Nc1ncnc2c3c(n(-c4ccc(CC(=O)Nc5ccc6c(c5)CCC6)cc4)c12)CCC3
< 10 | > 200 | COc1ccc(CC(=O)Nc2ccc(-n3c4c(c5ncnc(N)c53)CCC4)cc2OC)c(F)c1
10 to 200 | > 200 | Cc1ccc(F)c(NC(=O)Cc2ccc(-n3c4c(c5ncnc(N)c53)COC4)cc2)c1
< 10 | > 200 | COc1ccc(CC(=O)Nc2ccc(-n3c4c(c5ncnc(N)c53)CCC4)cc2)cn1
10 to 200 | > 200 | Cc1ccc(CC(=O)Nc2ccc(-n3c4c(c5ncnc(N)c53)COC4)cc2)c(F)c1
< 10 | < 10 | CC(C)(C)c1cc(NC(=O)Cc2ccc(-n3c4c(c5ncnc(N)c53)CCC4)cc2)n(-c2ccccc2)n1
< 10 | > 200 | Nc1ncnc2c3c(n(-c4ccc(NC(=O)Cc5ccc6c(c5)CCC6)cc4)c12)CCC3
10 to 200 | > 200 | COc1ccc(CC(=O)Nc2ccc(-n3c4c(c5ncnc(N)c53)CCC4)cc2)nc1
10 to 200 | > 200 | Nc1ncnc2c3c(n(-c4ccc(CC(=O)Nc5ccc(OC(F)(F)F)cc5)cc4)c12)CCC3
 | > 200 | Nc1ncnc2c3c(n(-c4ccc(NC(=O)Cc5ccc(OC(F)(F)F)cc5)cc4)c12)CCC3
< 10 | < 10 | COc1ccc(CC(=O)Nc2ccc(-n3c4c(c5ncnc(N)c53)CCC4)cc2)cc1Br
< 10 | 10 to 200 | COc1cc(F)c(CC(=O)Nc2ccc(-n3c4c(c5ncnc(N)c53)CCC4)cc2)c(F)c1
> 200 |  | CNC(=O)c1ccc(CC(=O)Nc2ccc(-n3c4c(c5ncnc(N)c53)CCC4)cc2OC)cc1
< 10 |  | COc1cc(-n2c3c(c4ncnc(N)c42)COC3)ccc1NC(=O)Cn1ccc(C(C)C)n1
< 10 |  | Nc1ncnc2c3c(n(-c4ccc(NC(=O)Cc5cc(C(F)(F)F)no5)cc4)c12)CCC3
10 to 200 |  | COc1ccc(CC(=O)Nc2ccc(-n3c4c(c5ncnc(N)c53)CCC4)cc2OC)nc1
> 200 |  | Nc1ncnc2c3c(n(-c4ccc(NC(=O)Cc5ccccc5)c(OC(F)(F)F)c4)c12)CCC3
> 200 |  | Nc1ncnc2c3c(n(-c4ccc(NC(=O)CN5CCOCC5)cc4)c12)CCC3
